A value given as a limit tells only on which side of the number the result lay.

Test [1] deals with T1, Plasmodium falciparum hexose transporter (PfHT) (Plasmodium falciparum, UniProt O97467).
T1 construct: expressed in transfected cells; host or cells: Xenopus laevis oocytes
T1 sequence (O97467 1-504): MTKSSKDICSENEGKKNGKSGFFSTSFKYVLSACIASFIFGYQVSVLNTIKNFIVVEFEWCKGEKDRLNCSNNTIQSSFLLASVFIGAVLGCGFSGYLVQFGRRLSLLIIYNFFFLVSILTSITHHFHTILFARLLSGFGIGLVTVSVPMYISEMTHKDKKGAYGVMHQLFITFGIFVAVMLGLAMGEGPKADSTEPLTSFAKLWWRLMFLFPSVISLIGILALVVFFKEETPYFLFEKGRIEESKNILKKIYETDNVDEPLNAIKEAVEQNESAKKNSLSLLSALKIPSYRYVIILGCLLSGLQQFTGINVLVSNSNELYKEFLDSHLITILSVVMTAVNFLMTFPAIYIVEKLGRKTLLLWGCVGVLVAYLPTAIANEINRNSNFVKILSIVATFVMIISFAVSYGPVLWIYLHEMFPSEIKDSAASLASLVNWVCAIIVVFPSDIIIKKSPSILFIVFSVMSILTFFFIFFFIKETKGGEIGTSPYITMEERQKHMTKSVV
As to conditions: cited from earlier work; for Km: substrate Km, read-out: Km for transport via PfHT.

Test [2] concerns the target T2, Babesia bovis hexose transporter 1 (BboHT1) (Babesia bovis, UniProt B0LKY8). Nature of the test: D-glucose transport via BboHT1 expressed in Xenopus laevis oocytes. Particulars: X. laevis oocytes, room temperature, mean ± SEM (n ≥ 3). It counts as cell-based. Here is the method: The effect of the green tea catechins, EC, ECG, EGC and EGCG, on D-glucose transport via PfHT, GLUT1 and the Babesia bovis hexose transporter 1 (BboHT1; [12]) and D-fructose transport via GLUT5 was assayed in Xenopus laevis oocytes expressing each of the hexose transporters, using methods described previously. The compounds were tested initially at a concentration of 0.5 mM (data not shown).

The next test has as its target T3, GLUT5 (Homo sapiens, UniProt P22732).
T3 construct: expressed in transfected cells; host or cells: Xenopus laevis oocytes
T3 sequence (P22732 1-501): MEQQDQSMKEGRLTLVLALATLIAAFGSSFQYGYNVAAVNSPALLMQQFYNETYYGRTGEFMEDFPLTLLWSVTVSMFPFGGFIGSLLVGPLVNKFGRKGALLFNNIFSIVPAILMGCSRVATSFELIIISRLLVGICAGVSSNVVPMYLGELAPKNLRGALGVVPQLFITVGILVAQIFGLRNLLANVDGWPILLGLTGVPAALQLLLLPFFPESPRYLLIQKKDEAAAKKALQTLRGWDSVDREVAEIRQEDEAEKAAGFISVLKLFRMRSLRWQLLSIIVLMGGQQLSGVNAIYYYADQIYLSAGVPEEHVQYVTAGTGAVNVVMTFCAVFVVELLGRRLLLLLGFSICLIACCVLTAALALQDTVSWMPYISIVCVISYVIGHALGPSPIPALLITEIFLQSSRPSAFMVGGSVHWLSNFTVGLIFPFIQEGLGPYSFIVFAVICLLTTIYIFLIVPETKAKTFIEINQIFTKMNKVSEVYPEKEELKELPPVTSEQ
Nature of the test: D-fructose transport via GLUT5 expressed in Xenopus laevis oocytes. It counts as cell-based, mammalian. As to conditions: D-fructose (100 μM) transport, X. laevis oocytes, room temperature; mean ± SEM (n ≥ 3). Here is the method: (§1) The effect of the green tea catechins, EC, ECG, EGC and EGCG, on D-glucose transport via PfHT, GLUT1 and the Babesia bovis hexose transporter 1 (BboHT1; [12]) and D-fructose transport via GLUT5 was assayed in Xenopus laevis oocytes expressing each of the hexose transporters, using methods described previously.

The test system of test [3] is Babesia divergens (strain Rouen 1987). Briefly: Babesia divergens growth inhibition. It counts as cell-based. Particulars: B. divergens, mean ± SEM; for inhibition of parasite growth: 200 μM, n = 3. Here is the method: (§2) Furthermore, given that catechins are competitive inhibitors of D-glucose transport mediated by GLUT1 [8], the relationship between external D-glucose concentration and IC50 values was examined. […] The effect of catechins was also tested on Babesia divergens (strain Rouen 1987) growth as described.

Test [4] has as its target T1, Plasmodium falciparum hexose transporter (PfHT). Nature of the test: cell-based. As to conditions: D-glucose (38 μM) transport, X. laevis oocytes, room temperature; mean ± SEM (n ≥ 3). As for the experimental part: as §1
The target of test [5] is T4, mammalian facilitative glucose transporter 1 (GLUT1) (Homo sapiens, UniProt P11166).
T4 construct: expressed in transfected cells; host or cells: Xenopus laevis oocytes
T4 sequence (P11166 1-492): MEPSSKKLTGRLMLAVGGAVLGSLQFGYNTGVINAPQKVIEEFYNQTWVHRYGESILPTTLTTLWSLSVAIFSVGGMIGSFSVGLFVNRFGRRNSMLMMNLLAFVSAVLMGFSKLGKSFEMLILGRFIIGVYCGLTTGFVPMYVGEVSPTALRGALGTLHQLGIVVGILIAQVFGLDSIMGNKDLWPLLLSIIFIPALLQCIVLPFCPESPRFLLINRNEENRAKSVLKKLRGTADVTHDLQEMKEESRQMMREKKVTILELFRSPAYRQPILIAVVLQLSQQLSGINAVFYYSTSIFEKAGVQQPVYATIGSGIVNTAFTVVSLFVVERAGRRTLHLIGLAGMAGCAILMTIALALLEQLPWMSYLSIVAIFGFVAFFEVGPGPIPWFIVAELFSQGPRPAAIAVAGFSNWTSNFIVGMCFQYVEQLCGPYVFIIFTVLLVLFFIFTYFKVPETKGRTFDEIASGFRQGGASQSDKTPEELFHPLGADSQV
Briefly: D-glucose transport via GLUT1 expressed in Xenopus laevis oocytes. In kind it is cell-based. As to conditions: D-glucose (38 μM) transport, X. laevis oocytes, room temperature; mean ± SEM (n ≥ 3). As for the experimental part: as §1

A further test has as its system L323N BboHT1. Briefly: D-glucose uptake by mutant L323N BboHT1 in X. laevis oocytes. It counts as cell-based, Babesia bovis. As to conditions: 0.5 mM catechin; L323N vs wild-type; P < 0.001.
The next test concerns P. falciparum (3D7). Nature of the test: P. falciparum growth in vitro. In kind it is cell-based, Plasmodium falciparum. As to conditions: P. falciparum 3D7, 12 mM D-glucose, 48 h; mean ± SEM (n ≥ 3); read-out: IC50 parasite growth. As for the experimental part:
as §2

A further test concerns the target GLUT1. More on the design: method as in PMID 12970085. As to conditions: human erythrocytes, zero-trans D-glucose efflux; read-out: Ki for D-glucose transport via GLUT1, published previously; cited from earlier work.
The target in the next test is T5, PfHT (Plasmodium falciparum, UniProt O97467).
T5 construct: expressed in transfected cells; host or cells: Xenopus laevis oocytes
Nature of the test: 3-O-methyl-D-glucose (3OMG) transport via PfHT in X. laevis oocytes. In kind it is cell-based. As to conditions: 3OMG (17 μM), mean ± SEM, n = 3.

Another test deals with B. bovis parasites. More on the design: method as in PMID 18638508. Particulars: cited from earlier work.
Test [6] has as its target T2, Babesia bovis hexose transporter 1 (BboHT1). Also on record: method as in PMID 18638508. As to conditions: cited from earlier work.

T2 sequence (B0LKY8 entry or part of it): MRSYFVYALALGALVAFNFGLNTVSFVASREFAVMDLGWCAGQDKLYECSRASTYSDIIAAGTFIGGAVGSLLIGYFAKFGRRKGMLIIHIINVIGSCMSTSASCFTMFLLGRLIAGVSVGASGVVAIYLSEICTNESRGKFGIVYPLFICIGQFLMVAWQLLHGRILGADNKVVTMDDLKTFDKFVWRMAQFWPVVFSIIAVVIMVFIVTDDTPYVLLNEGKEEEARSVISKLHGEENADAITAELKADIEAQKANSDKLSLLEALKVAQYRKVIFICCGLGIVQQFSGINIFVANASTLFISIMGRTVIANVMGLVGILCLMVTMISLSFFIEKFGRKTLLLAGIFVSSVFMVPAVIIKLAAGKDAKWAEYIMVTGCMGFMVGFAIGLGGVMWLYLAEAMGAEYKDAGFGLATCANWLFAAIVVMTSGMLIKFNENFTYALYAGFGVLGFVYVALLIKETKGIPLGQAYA

On to `CO[C@@H]([C@H](O)[C@H](O)CO)[C@@H](O)C=O` [3OMG, 3-O-methyl-D-glucose], for which the Km in test [1] was 1300 µM.

For the compound `OC[C@H]1OC(O)[C@H](O)[C@@H](O)[C@@H]1O` (stereo partly drawn) [D-glucose], in test [1], the Km was 1000 µM.

On to `Oc1cc(O)c2c(c1)O[C@H](c1ccc(O)c(O)c1)[C@H](O)C2` [EC, (−)-epicatechin], for which the Ki in test [2] was 108 ± 52 µM; on GLUT5 it was greater than 500 µM; in test [4], greater than 500 µM; in [5] it was roughly 500 µM. Further, in test [3] (Babesia divergens, n = 3, read-out: inhibition of parasite growth), the inhibition at 200 µM is 66 ± 14%. Also, the “effect on D-glucose uptake by mutant versus wild-type BboHT1” value in the test on L323N BboHT1 was “affected significantly less”.

On to `O=C(O[C@@H]1Cc2c(O)cc(O)cc2O[C@@H]1c1ccc(O)c(O)c1)c1cc(O)c(O)c(O)c1` [ECG, (−)-epicatechin-gallate], for which, in the test on P. falciparum (3D7), the IC50 was 32 ± 1 µM. Moreover, the Ki in [2] is greater than 500 µM; on GLUT5 it was 117 ± 54 µM; at GLUT1 it was 0.14 µM; in test [4], 45 ± 10 µM; in [5], 68 ± 18 µM; at PfHT, 18 ± 3 µM.

For the compound `Oc1cc(O)c2c(c1)O[C@H](c1cc(O)c(O)c(O)c1)[C@H](O)C2` [EGC, (−)-epigallocatechin], the Ki is 168 ± 83 µM in [2], greater than 500 µM on GLUT5, greater than 500 µM in [4] and greater than 500 µM in test [5]. Besides, the “inhibition of parasite growth” value in test [3] was 30 ± 10%.

In the case of `C=CCCCCCCCCCO[C@H]1[C@H](O)[C@@H](CO)OC(O)[C@@H]1O` (stereo partly drawn) [compound 3361], in [1], the “inhibition of D-glucose transport via PfHT (mode)” value is “specific and competitive inhibitor”. For the same compound, the “killing of B. bovis parasites in culture” value in the test on B. bovis parasites is “did not kill”. In addition, the “inhibition of BboHT1” value in test [6] is recorded as “good inhibitor”.

(−)-epigallocatechin-gallate [EGCG]: in the test on P. falciparum (3D7), the IC50 is 17 ± 3 µM. For the same compound, the Ki was greater than 500 µM in [2]; 113 ± 48 µM on GLUT5; 0.97 µM at GLUT1; 90 ± 24 µM in test [4]; 105 ± 18 µM in test [5]. Besides, in test [3], the “inhibition of parasite growth” value was determined as 71 ± 2%.

(Values after paper PMC2791876, “Comparison of effects of green tea catechins on apicomplexan hexose transporters and mammalian orthologues” (Molecular and Biochemical Parasitology, 2009).)
